Laboratory results: the supplement of paper PMC10307832

What was measured:
Experiment in all cases: relative viability (nuclei count vs DMSO), 5 days (fraction); higher = more cells survive
IU1-47 + Trametinib = compound: CC1=CC(=C(N1C2=CC=C(C=C2)Cl)C)C(=O)CN3CCCCC3 [IU1-47] + CC(=O)Nc1cccc(-n2c(=O)n(C3CC3)c(=O)c3c(Nc4ccc(I)cc4F)n(C)c(=O)c(C)c32)c1 [Trametinib] (partner 0.02 µM)
In short: (§1)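 Each reported value is a median over duplicate plates. It expresses relative viability: treated-well nuclei count divided by vehicle-well nuclei count. Lung cancer cell lines in 1536-well plates were dosed by pin tool a day after seeding, alone with one drug or with a fixed anchor-drug dose plus five library-drug doses (not always all listed) in √10 steps, and nuclei were counted after 5 days.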

FG-4592 + Navitoclax = compound: Cc1nc(C(=O)NCC(=O)O)c(O)c2ccc(Oc3ccccc3)cc12 [FG-4592] + CC1(C)CCC(c2ccc(Cl)cc2)=C(CN2CCN(c3ccc(C(=O)NS(=O)(=O)c4ccc(N[C@H](CCN5CCOCC5)CSc5ccccc5)c(S(=O)(=O)C(F)(F)F)c4)cc3)CC2)C1 [Navitoclax] (partner 0.5 µM)
In short: as §1

FG-4592 = compound: Cc1nc(C(=O)NCC(=O)O)c(O)c2ccc(Oc3ccccc3)cc12 [FG-4592]
In short: (§2)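 Viability is treated-well nuclei as a fraction of vehicle-well nuclei, reported as the median across plates. Before counting, lung cancer cell lines were kept overnight at 37 °C in 1536-well plates, pinned with five √10-spaced library-drug doses on vehicle-anchored plates, and left 5 days without medium change, then fixed, permeabilised and Hoechst-stained in one step, imaged at 4× and counted by MetaXpress. A plate passed only if control CV was below 25% and at least one doubling occurred.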

IU1-47 = compound: CC1=CC(=C(N1C2=CC=C(C=C2)Cl)C)C(=O)CN3CCCCC3 [IU1-47]
In short: as §2

Cell Line	relative viability (IU1-47 + Trametinib; first compound 0.08 µM)	relative viability (IU1-47 + Trametinib; first compound 0.253 µM)	relative viability (IU1-47 + Trametinib; first compound 0.8 µM)	relative viability (IU1-47 + Trametinib; first compound 2.53 µM)	relative viability (IU1-47 + Trametinib; first compound 8 µM)	relative viability (FG-4592 + Navitoclax; first compound 0.08 µM)	relative viability (FG-4592 + Navitoclax; first compound 0.253 µM)	relative viability (FG-4592 + Navitoclax; first compound 0.8 µM)	relative viability (FG-4592 + Navitoclax; first compound 8 µM)	relative viability (FG-4592; 0.08 µM)	relative viability (FG-4592; 0.253 µM)	relative viability (FG-4592; 0.8 µM)	relative viability (FG-4592; 2.53 µM)	relative viability (FG-4592; 8 µM)	relative viability (IU1-47; 0.08 µM)	relative viability (IU1-47; 0.253 µM)	relative viability (IU1-47; 0.8 µM)	relative viability (IU1-47; 2.53 µM)	relative viability (IU1-47; 8 µM)	relative viability (FG-4592 + Navitoclax; first compound 2.53 µM)
SK-LU-1	0.52	0.542	0.543	0.491	0.395	0.72	0.554	0.959	0.777	0.882	0.748	0.898	0.899	0.879	1.14	1.17	1.05	0.98	1.06	–
PC-3 [JPC-3]	0.771	0.686	0.73	0.715	0.791	0.778	0.823	0.829	0.859	1.06	0.948	0.987	1.07	1.02	1.09	1.06	1.11	0.705	0.982	0.875
EMC-BAC-2	0.978	0.948	0.942	1	0.946	1.13	1.12	1.11	1.09	0.947	0.929	0.674	0.938	0.779	1.1	1.09	0.974	0.977	0.974	1.16
NCI-H1299	–	–	–	–	–	1.07	1.03	1.02	1.1	0.974	0.98	0.982	0.99	1.02	0.995	1.05	1.06	1	1.02	1.02
LCLC-103H	0.71	0.817	0.701	0.647	0.7	–	–	–	–	0.955	0.971	0.807	0.865	0.938	1.03	1.1	0.871	0.976	0.933	–
ABC-1	–	–	–	–	–	–	–	–	–	0.814	0.824	0.924	0.949	0.77	1.03	1.01	0.888	–	0.876	–
NCI-H650	0.96	0.958	0.863	0.91	1.06	–	–	–	–	0.836	0.964	0.737	0.912	0.891	1.15	1.08	0.978	0.836	0.876	–
NCI-H1648	0.624	0.535	0.463	0.407	0.391	–	–	–	–	0.798	0.926	0.907	0.83	1.28	0.947	1.17	1.17	0.557	0.552	–
NCI-H661	0.576	0.57	0.576	0.464	0.471	–	–	–	–	0.926	0.942	1.11	0.903	0.972	1.09	1.07	1.12	0.929	1.07	–
NCI-H1563	–	–	–	–	–	–	–	–	–	0.946	0.958	0.922	0.988	0.888	0.985	0.983	1.12	0.944	1.05	–
A549	–	–	–	–	–	1.25	1.21	1.27	1.08	0.979	0.86	0.974	1.02	0.911	1.06	1.07	0.978	0.937	1.01	1.28
NCI-H522	0.826	0.747	0.708	0.715	0.865	–	–	–	–	0.958	0.947	0.761	0.992	0.823	0.959	0.975	1.01	0.82	0.874	–
NCI-H1623	–	–	–	–	–	–	–	–	–	0.964	0.824	0.858	1.05	0.769	1.04	0.981	0.974	0.812	0.882	–
SW 900	0.876	–	0.783	0.881	0.716	–	–	–	–	0.699	0.954	0.514	0.913	1.13	0.771	0.589	0.82	0.68	0.742	–
IA-LM	–	–	–	–	–	0.785	0.707	0.899	0.397	0.913	0.933	0.894	0.859	0.764	1.11	1.08	1.08	1.01	0.884	0.481
NCI-H358	0.129	0.13	0.128	0.135	0.121	–	–	–	–	1.02	0.835	1.16	0.896	0.989	1	0.912	0.981	0.89	0.848	–
EBC-1	–	–	–	–	–	0.469	0.389	0.425	0.397	1.07	0.977	0.95	0.94	0.953	1.06	0.954	1.05	0.921	0.867	0.493
